Results on 6 compounds are retold here after PMC10135059, “Kaurane-Type Diterpenoids as Potential Inhibitors of Dihydrofolate Reductase-Thymidylate Synthase in New World Leishmania Species” (Antibiotics, 2023).

In assay [1] the target is T1, L. major dihydrofolate reductase (LmDHFR), recombinant LmDHFR-TS (Leishmania major, UniProt P07382).
T1 construct: made in house
The assay is described as follows: LmDHFR-TS enzyme inhibition assay (spectrophotometric, standard DHFR conditions). Format: biochemical. As to the method:
Then, using the Cheng–Prusoff equation and assuming reversible competitive inhibition and a 1:1 stoichiometry, the apparent inhibitory constant (Ki^app) was calculated for the selected kauranes using the IC50 results, as shown in Table 1.
Purification and kinetic characterization of the recombinant LmDHFR-TS protein was performed according to the previously reported procedures. The in vitro evaluation of selected diterpenoids (i.e., 4, 135, 301, 302, 301a, and 302a) for inhibitory activity against LmDHFR-TS was conducted using a spectrophotometric assay under standard DHFR conditions. The assay consisted of LmDHFR (2.7 nM), bovine serum albumin (BSA, 1 mg/mL), N-[tris(hydroxymethyl)-methyl]-2-aminoethanesulfonic acid (TES) buffer (100 mM, pH 7.0, […] β-mercaptoethanol, 2 mM ethylenediaminetetraacetic acid (EDTA)), and nicotinamide adenine dinucleotide phosphate (NADPH, 100 μM) with varying concentrations of the test compounds (0.1–128 μM). The reaction was initiated by adding the substrate (7,8-dihydrofolate (H2F), 20 μM) and was monitored for 360 s at 340 nm (i.e., oxidation of NADPH to NADP+) to determine the initial reaction rate (Vo) through linear regression analysis of the resulting absorbance profile. […] The Ki^app values were finally calculated using the Cheng–Prusoff equation for competitive inhibition with a 1:1 stoichiometry and reversible inhibitor-binding reactions: Ki^app = IC50/(1 + [S]/Km), where [S] is the substrate (H2F) concentration and Km is the Michaelis constant.

Assay [2] relates to Leishmania major PTR1 (LmPTR1). Also noted: method as in PMID 34063939. The conditions noted are these: previous study; cited from earlier work.
For assay [3], the target named is T1, L. major dihydrofolate reductase (LmDHFR), recombinant LmDHFR-TS. Kind of assay: LmDHFR-TS enzyme inhibition assay (spectrophotometric, standard DHFR conditions). It counts as biochemical. The conditions noted are these: cutoff pIC50 value of the L. major machine learning model.
The target of assay [4] is L. chagasi PTR1 and DHFR-TS. Also noted: method as in PMID 31409157. The following applies: L. chagasi PTR1 vs DHFR-TS; cited from earlier work.
The mark [5] stands for this setting: IC50, LmDHFR 2.7 nM, NADPH 100 μM, H2F 20 μM, test compounds 0.1–128 μM, triplicate.

A value given as a limit tells only on which side of the number the result lay.

T1 sequence (P07382 whole entry): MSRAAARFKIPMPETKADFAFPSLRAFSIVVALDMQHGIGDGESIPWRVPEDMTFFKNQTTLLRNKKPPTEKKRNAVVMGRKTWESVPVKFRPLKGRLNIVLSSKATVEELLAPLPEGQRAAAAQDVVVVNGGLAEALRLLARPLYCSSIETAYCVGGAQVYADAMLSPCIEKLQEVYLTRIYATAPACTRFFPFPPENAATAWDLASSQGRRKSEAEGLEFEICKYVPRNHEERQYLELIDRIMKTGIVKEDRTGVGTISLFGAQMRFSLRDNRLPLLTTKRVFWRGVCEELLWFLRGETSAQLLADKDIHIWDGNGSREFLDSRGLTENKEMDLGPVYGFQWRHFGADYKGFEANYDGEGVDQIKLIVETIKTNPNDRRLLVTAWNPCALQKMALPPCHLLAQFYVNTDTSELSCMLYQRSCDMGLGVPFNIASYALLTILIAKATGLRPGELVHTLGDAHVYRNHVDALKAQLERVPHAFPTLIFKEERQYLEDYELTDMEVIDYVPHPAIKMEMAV

Usually Ki stands for the equilibrium dissociation constant of an inhibitor or competing ligand from its target. As usually defined, the IC50 is the concentration at which inhibition is half-maximal. On to `CC1(C)OCC2(CC34CCC5C(C)(C)C(=O)CCC5(C)C3CCC2C4)O1` (stereo not drawn) [structure 4, 16ß,17-Isopropylidenedioxy-ent-kauran-3-one], for which, in assay [1], the inhibition constant (Ki) was 0.81 µM. Moreover, the concentration for half-maximal inhibition (IC50) in assay [1] (setting [5]) stood at 7.6 µM.
Take `C=C1CC23CCC4C(C)(CCC(OC(=O)C=Cc5ccccc5)C4(C)C(=O)O)C2CCC1C3` (stereo not drawn) [structure 302, 3α-cinnamoyloxy-ent-kaur-16-en-19-oic acid]: in assay [1], the Ki is 0.68 µM. Also, the half-inhibitory concentration (IC50) is 6.3 µM in assay [1] (setting [5]) and < 10 µM in assay [1] (pIC50, pIC50 = −log IC50). For the same compound, in assay [2], the “half-maximal inhibitory concentrations (IC50) against PTR1” value is on record as “less than 10 µg/mL”.
`C=C1CC23CCC4C(C)(C(=O)OC5C=C(C)C(O)CC5C(C)C)CCCC4(C)C2CCC1C3` (stereo not drawn) [structure 135, 2β-hydroxy-menth-6-en-5β-yl ent-kaurenoate]: the Ki in assay [1] is 1.2 µM. Besides, the 50% inhibitory concentration (IC50) in assay [1] (setting [5]) was 11.2 µM.
Consider `C=C1CC23CCC4C(C)(C(=O)O)C(OC(=O)C=Cc5ccc(O)cc5)CCC4(C)C2(O)CCC1C3` (stereo not drawn) [structure 301a, 3α-p-coumaroyloxy-9β-hydroxy-ent-kaur-16-en-19-oic acid], for which the Ki in assay [1] was found to be 0.85 µM. Further, the IC50 is 7.9 µM in assay [1] (setting [5]) and < 10 µM in assay [1] (pIC50, pIC50 = −log IC50). Besides, the “reduction of Ki^app compared to kauranes 301 and 302” value in assay [1] (effect of p-hydroxyl group, 301a vs 301, 302a vs 302) is reported as 10%. In addition, the “classification against PTR1” value in assay [2] was “inactive”.
As for `C=C1CC23CCC4C(C)(C(=O)O)C(OC(=O)C=Cc5ccccc5)CCC4(C)C2(O)CCC1C3` (stereo not drawn) [structure 301, 3α-cinnamoyloxy-9β-hydroxy-ent-kaur-16-en-19-oic Acid], the Ki in assay [1] was 0.94 µM. Moreover, the concentration for half-maximal inhibition (IC50) in assay [1] (setting [5]) was 8.8 µM; in assay [1] (pIC50, pIC50 = −log IC50) it was < 10 µM. For the same compound, in assay [3], the “classification against DHFR-TS” value is on record as “active”. Moreover, the “classification against PTR1” value in assay [2] is “inactive”.
Regarding `Nc1nc(N)c(Cc2ccccc2)c(CC2CCCCC2)n1` [2,4-diamine, 5-benzyl-6-(cyclohexylmethyl) pyrimidine-2,4-diamine], in assay [4], the “Ki^Lc^PTR1/Ki^Lc^DHFR-TS ratio” value was 0.68.
